Data from the supplement of paper PMC10307832.

Experiments:
Experiment in all cases: relative viability (nuclei count vs DMSO), 5 days (fraction); higher = more cells survive
A-427 = system: A-427
Outline: (§1)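 A single step with final 0.05% Triton X-100, 1% formaldehyde and 1 ug/ml Hoechst fixed the cells and stained nuclei 5 days after treatment. Lung cancer cell lines in 1536-well plates had been treated by pin tool the day after seeding with one drug alone or a fixed anchor-drug dose plus five library-drug doses (not always all listed) in √10 steps, and nuclei were counted on 4× images. Relative viability is the ratio of nuclei in treated wells to nuclei in vehicle wells, taken as the median of duplicate plates.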

CAL-12T = system: CAL-12T
Outline: as §1

COR-L 105 = system: COR-L 105
Outline: as §1

EMC-BAC-2 = system: EMC-BAC-2
Outline: as §1

HARA = system: HARA
Outline: as §1

HCC-366 = system: HCC-366
Outline: as §1

HCC-827 = system: HCC-827
Outline: as §1

HOP-62 = system: HOP-62
Outline: as §1

LCLC-103H = system: LCLC-103H
Outline: as §1

NCI-H1355 = system: NCI-H1355
Outline: as §1

NCI-H1395 = system: NCI-H1395
Outline: as §1

NCI-H1437 = system: NCI-H1437
Outline: as §1

NCI-H1755 = system: NCI-H1755
Outline: as §1

NCI-H1792 = system: NCI-H1792
Outline: as §1

NCI-H1915 = system: NCI-H1915
Outline: as §1

NCI-H1975 = system: NCI-H1975
Outline: as §1

NCI-H2009 = system: NCI-H2009
Outline: as §1

NCI-H2228 = system: NCI-H2228
Outline: as §1

NCI-H23 = system: NCI-H23
Outline: as §1

NCI-H460 = system: NCI-H460
Outline: as §1

SK-LU-1 = system: SK-LU-1
Outline: as §1

SW 1573 = system: SW 1573
Outline: as §1

Which results are given for O=C(O)c1ccc(-c2c[nH]c3ncc(-c4ccccc4)cc23)cc1C1CCCC1 + Nc1nc2[nH]cc(CCc3ccc(C(=O)N[C@@H](CCC(=O)O)C(=O)O)cc3)c2c(=O)[nH]1 [Pemetrexed] (partner 0.2 µM)?
relative viability (A-427; first compound 0.04 µM): 0.959; relative viability (A-427; first compound 0.1265 µM): 1.06; relative viability (A-427; first compound 0.4 µM): 0.943; relative viability (A-427; first compound 1.265 µM): 0.843; relative viability (CAL-12T; first compound 0.04 µM): 1.15; relative viability (CAL-12T; first compound 0.1265 µM): 1.04; relative viability (CAL-12T; first compound 0.4 µM): 1.1; relative viability (CAL-12T; first compound 1.265 µM): 1.09; relative viability (COR-L 105; first compound 0.04 µM): 1.06; relative viability (COR-L 105; first compound 0.1265 µM): 1.19; relative viability (COR-L 105; first compound 0.4 µM): 1.19; relative viability (COR-L 105; first compound 1.265 µM): 1.08; relative viability (EMC-BAC-2; first compound 0.04 µM): 0.451; relative viability (EMC-BAC-2; first compound 0.1265 µM): 0.465; relative viability (EMC-BAC-2; first compound 0.4 µM): 0.479; relative viability (EMC-BAC-2; first compound 1.265 µM): 0.451; relative viability (HARA; first compound 0.04 µM): 0.23; relative viability (HARA; first compound 0.1265 µM): 0.237; relative viability (HARA; first compound 0.4 µM): 0.222; relative viability (HARA; first compound 1.265 µM): 0.252; relative viability (HCC-366; first compound 0.04 µM): 0.178; relative viability (HCC-366; first compound 0.1265 µM): 0.203; relative viability (HCC-366; first compound 0.4 µM): 0.149; relative viability (HCC-366; first compound 1.265 µM): 0.187; relative viability (HCC-827; first compound 0.04 µM): 0.198; relative viability (HCC-827; first compound 0.1265 µM): 0.28; relative viability (HCC-827; first compound 0.4 µM): 0.287; relative viability (HCC-827; first compound 1.265 µM): 0.163; relative viability (HOP-62; first compound 0.04 µM): 0.327; relative viability (HOP-62; first compound 0.1265 µM): 0.389; relative viability (HOP-62; first compound 0.4 µM): 0.307; relative viability (HOP-62; first compound 1.265 µM): 0.351; relative viability (LCLC-103H; first compound 0.04 µM): 0.487; relative viability (LCLC-103H; first compound 0.1265 µM): 0.463; relative viability (LCLC-103H; first compound 0.4 µM): 0.495; relative viability (LCLC-103H; first compound 1.265 µM): 0.481; relative viability (NCI-H1355; first compound 0.04 µM): 0.991; relative viability (NCI-H1355; first compound 0.1265 µM): 1.13; relative viability (NCI-H1355; first compound 0.4 µM): 1.12; relative viability (NCI-H1355; first compound 1.265 µM): 0.756; relative viability (NCI-H1395; first compound 0.04 µM): 0.949; relative viability (NCI-H1395; first compound 0.1265 µM): 1.14; relative viability (NCI-H1395; first compound 0.4 µM): 0.774; relative viability (NCI-H1395; first compound 1.265 µM): 0.858; relative viability (NCI-H1437; first compound 0.04 µM): 0.338; relative viability (NCI-H1437; first compound 0.1265 µM): 0.33; relative viability (NCI-H1437; first compound 0.4 µM): 0.311; relative viability (NCI-H1437; first compound 1.265 µM): 0.295; relative viability (NCI-H1755; first compound 0.04 µM): 0.412; relative viability (NCI-H1755; first compound 0.1265 µM): 0.449; relative viability (NCI-H1755; first compound 0.4 µM): 0.405; relative viability (NCI-H1755; first compound 1.265 µM): 0.436; relative viability (NCI-H1792; first compound 0.04 µM): 0.713; relative viability (NCI-H1792; first compound 0.1265 µM): 0.968; relative viability (NCI-H1792; first compound 0.4 µM): 1.05; relative viability (NCI-H1792; first compound 1.265 µM): 0.734; relative viability (NCI-H1915; first compound 0.04 µM): 0.493; relative viability (NCI-H1915; first compound 0.1265 µM): 0.454; relative viability (NCI-H1915; first compound 0.4 µM): 0.481; relative viability (NCI-H1915; first compound 1.265 µM): 0.448; relative viability (NCI-H1975; first compound 0.04 µM): 0.301; relative viability (NCI-H1975; first compound 0.1265 µM): 0.298; relative viability (NCI-H1975; first compound 0.4 µM): 0.284; relative viability (NCI-H1975; first compound 1.265 µM): 0.28; relative viability (NCI-H2009; first compound 0.04 µM): 1.03; relative viability (NCI-H2009; first compound 0.1265 µM): 1.11; relative viability (NCI-H2009; first compound 0.4 µM): 1.03; relative viability (NCI-H2009; first compound 1.265 µM): 0.946; relative viability (NCI-H2228; first compound 0.04 µM): 0.349; relative viability (NCI-H2228; first compound 0.1265 µM): 0.294; relative viability (NCI-H2228; first compound 0.4 µM): 0.348; relative viability (NCI-H2228; first compound 1.265 µM): 0.29; relative viability (NCI-H23; first compound 0.04 µM): 0.756; relative viability (NCI-H23; first compound 0.1265 µM): 0.885; relative viability (NCI-H23; first compound 0.4 µM): 0.683; relative viability (NCI-H23; first compound 1.265 µM): 0.66; relative viability (NCI-H460; first compound 0.04 µM): 0.0611; relative viability (NCI-H460; first compound 0.1265 µM): 0.0579; relative viability (NCI-H460; first compound 0.4 µM): 0.0617; relative viability (NCI-H460; first compound 1.265 µM): 0.0609; relative viability (SK-LU-1; first compound 0.04 µM): 0.909; relative viability (SK-LU-1; first compound 0.1265 µM): 0.987; relative viability (SK-LU-1; first compound 0.4 µM): 0.882; relative viability (SK-LU-1; first compound 1.265 µM): 0.548; relative viability (SW 1573; first compound 0.04 µM): 0.808; relative viability (SW 1573; first compound 0.1265 µM): 0.762; relative viability (SW 1573; first compound 0.4 µM): 0.779; relative viability (SW 1573; first compound 1.265 µM): 0.63
